Laboratory results from patent US20130216614A1, “IMMUNOGENIC COMPOSITIONS AND METHODS FOR TREATING NUEROLOGIC DISORDERS” (Glaxosmithkline Biologicals S.A., priority 2010, published 2013).

Tests used:
TLR2 mRNA = experiment: In situ hybridization of TLR2 transcript in brain after peripheral injection; format: in vivo, C57BL/6J mice; conditions: 24 hr after single i.p. injection; CRX compounds 20 μg/mouse, 3D MPL 50 μg/mouse
Description: In order to evaluate the innate activation within the brain, we have performed in situ hybridization 24 hr following the systemic injection of either 3D MPL, CRX524 or CRX527 or CRX601 using the intra peritoneal route.
Specifically GSK Bio injected different compositions in C57BL/6J mice for evaluating the potency of those adjuvants after 24 hrs of peripheral injection to trigger microglial cell activation in the brain. Animal study groups were:
GSK Bio performed the injections in C57BL6 mice at the Centre de biologie expérimentale de I'INRS-IAF under an IACUC approved protocol. Twenty four hours after the injections, mice were deeply anesthetized via an intraperitoneal injection of a mixture of ketamine hydrochloride and xylazine and then perfused intracardially with ice-cold 0.9% saline, followed by 4% paraformaldehyde (PFA) in a 0.1 M borax buffer, pH 9.5, at 4° C. Brains were rapidly removed from skulls, postfixed in PFA 1-3 d at 4° C. and sent to the CHUL. They were then cryoprotected in 10% sucrose diluted in PFA overnight. The frozen brains were sectioned into 25-μm-thick coronal sections using a microtome (Reichert-Jung, Cambridge Instruments Company), and slices were collected in a cold cryoprotectant solution (0.05 M sodium phosphate buffer, pH 7.3, 30% ethylene glycol, and 20% glycerol, stored at −20° C.).
Every 12th section of brain slices, starting from the end of the olfactory bulb to the end of the cerebral cortex, was mounted on Colorfrost/Plus microscope slides (Fisher Scientific). In situ hybridization histochemical localization of TLR2 transcript was performed using ^35S-labeled cRNA probe. […]
Dual labeling combining immunocytochemistry and in situ hybridization was performed as described previously (Laflamme and Rivest, 2001; Nadeau and Rivest, 2000 infra) to localize TLR2 transcripts in microglia (iba-1 staining). […] The images depicted by the different panels are representative of the signal detected on the slides for each group of mice.

[1] = test system: peripheral blood monocytes; experiment: Ex vivo uptake of fluorescent Aβ42 by peripheral blood monocytes from adjuvanted mice; format: in vivo, C57BL/6 mice; conditions: i.m. injection; AS01B mouse full dose, CRX601 2 μg dose
Description: To begin to examine the function of the increase of monocytes in the peripheral blood, we examined the capacity of those monocytes to uptake Aβ42 in a test tube. In order to measure that phagocytic activity, we have used fluorescent HiLyteFluo Aβ42 (Anaspec Inc).
We examined the capacity of monocytes to uptake Aβ42 in a test tube. In order to measure that phagocytic activity we have used fluorescent HiLyteFluo Aβ42 (Anaspec Inc).
Preparation of cells: Peripheral blood was drawn from C57BL/6 mice via cardiac puncture with lithium-heparin as anticoagulant, 24-Hour after injection of the adjuvants used herein. Red blood cell lysis was performed twice on pooled blood with Ammonium Chloride-based Buffer (Sigma, Steinheim, Germany) and cells were counted with the EasyCount™ System (Immunicon). […]
Samples were acquired on a flow cytometer (BD FACSCanto II) and data analyzed with the FACSDiva software (BD Biosciences).
Monocytes were identified by their Side/Forward scatter properties, excluding debris and gated as CD3-/CD45R/B220-/Ly-6G-/NK1.1-(Lineage-)/CD11b+ cells. Aβ uptake was assessed by reporting the percentage and Mean Fluorescence Intensity (GeoMean) of positive HiLyte fluor488 Aβ1-42 cells among gated monocytes.

Compound	TLR2 mRNA activation in ventricular regions and choroid plexus (TLR2 mRNA)	Aβ42 uptake by monocytes compared to PBS group [1]
3-O-desacyl-4′-monophosphoryl lipid A [3D MPL]	lesser extent	
CCCCCCCCCCC[C@H](CC(=O)N[C@H]1[C@H](OC[C@H](NC(=O)C[C@@H](CCCCCCCCCCC)OC(=O)CCCCCCCCC)C(=O)O)O[C@H](CO)[C@@H](OP(=O)(O)O)[C@@H]1OC(=O)C[C@@H](CCCCCCCCCCC)OC(=O)CCCCCCCCC)OC(=O)CCCCCCCCC [CRX527]	clearly activated	
CCCCCCCCCCC[C@H](CC(=O)N[C@H]1[C@H](OC[C@H](NC(=O)C[C@@H](CCCCCCCCCCC)OCCCCCCCCCC)C(=O)O)O[C@H](CO)[C@@H](OP(=O)(O)O)[C@@H]1OC(=O)C[C@@H](CCCCCCCCCCC)OCCCCCCCCCC)OCCCCCCCCCC [CRX601]	clearly activated	higher amount
